Key:
[1] = Dog repeat-dose toxicity studies: plasma toxicokinetics; type: in vivo
[2] = Rat repeat-dose toxicity studies: plasma toxicokinetics; type: in vivo; details: for AUC(0-t) / Cmax: plasma, po; for AUC(0-t) / Cmax / Mean Cave: last day of dosing; for Cmax: Mean Cmax

Cc1cc(Nc2cc3ncccc3c(N[C@@H]3C[C@H]4CC[C@@H](C3)N4CCC#N)n2)n[nH]1 [izencitinib, Izencitinib]
Mean Cave ([1]; dog female, 10 mg/kg/day oral, 39 weeks, last day of dosing): 3.11 ng/mL
Mean Cave ([1]; dog female, 30 mg/kg/day oral, 4 weeks, last day of dosing): 14.8 ng/mL
Mean Cave ([1]; dog female, 30 mg/kg/day oral, 13 weeks, last day of dosing): 10.8 ng/mL
Mean Cave ([1]; dog female, 30 mg/kg/day oral, 39 weeks, last day of dosing): 20.5 ng/mL
Mean Cave ([1]; dog female, 100 mg/kg/day oral, 13 weeks, last day of dosing): 96.7 ng/mL
Mean Cave ([1]; dog female, 100 mg/kg/day oral, 39-week study, week 28 (day 197)): 131 ng/mL
Mean Cave ([1]; dog male, 10 mg/kg/day oral, 4 weeks, last day of dosing): 2.30 ng/mL
Mean Cave ([1]; dog male, 10 mg/kg/day oral, 13 weeks, last day of dosing): 1.61 ng/mL
Mean Cave ([1]; dog male, 10 mg/kg/day oral, 39 weeks, last day of dosing): 2.08 ng/mL
Mean Cave ([1]; dog male, 30 mg/kg/day oral, 4 weeks, last day of dosing): 19.1 ng/mL
Mean Cave ([1]; dog male, 30 mg/kg/day oral, 13 weeks, last day of dosing): 12.5 ng/mL
Mean Cave ([1]; dog male, 30 mg/kg/day oral, 39 weeks, last day of dosing): 15.9 ng/mL
Mean Cave ([1]; dog male, 100 mg/kg/day oral, 13 weeks, last day of dosing): 190 ng/mL
Mean Cave ([1]; dog male, 100 mg/kg/day oral, 39-week study, week 28 (day 197)): 69.6 ng/mL
plasma Cave:protein-corrected JAK IC50 ratio ([1]; dog, 10 mg/kg/day): < 1 ×
plasma Cave:uncorrected JAK IC50 ratio ([1]; dog, 10 mg/kg/day): < 1 ×
plasma Cave:protein-corrected JAK IC50 ratio ([1]; dog, 30 mg/kg/day): < 1 ×
plasma Cave:uncorrected JAK IC50 ratio ([1]; dog, 30 mg/kg/day): 1 ×
time within the therapeutic range ([1]; dog, 30 mg/kg/day): 6 to 9 h
plasma Cave:protein-corrected JAK IC50 ratio ([1]; dog, 100 mg/kg/day): 1–2 ×
plasma Cave:uncorrected JAK IC50 ratio ([1]; dog, 100 mg/kg/day): 7–11 ×
time at supratherapeutic plasma concentrations ([1]; dog, 100 mg/kg/day, all studies): up to 24 h
plasma Cave:uncorrected JAK IC50 ratio ([1]; dog, ≥100 mg/kg/day): ≥ 7 ×
AUC(0-t) ([2]; female, Sprague-Dawley (Crl:CD), rat, 30 mg/kg/day, Mean AUC0–24, rat female, 30 mg/kg/day oral, 26 weeks): 16.7 ng·h/mL
Cmax ([2]; female, Sprague-Dawley (Crl:CD), rat, 30 mg/kg/day, rat female, 30 mg/kg/day oral, 26 weeks): 6.02 ng/mL
AUC(0-t) ([2]; female, Sprague-Dawley (Crl:CD), rat, 100 mg/kg/day, Mean AUC0–24, rat female, 100 mg/kg/day oral, 26 weeks): 127 ng·h/mL
Cmax ([2]; female, Sprague-Dawley (Crl:CD), rat, 100 mg/kg/day, rat female, 100 mg/kg/day oral, 26 weeks): 32.5 ng/mL
AUC(0-t) ([2]; female, Sprague-Dawley (Crl:CD), rat, 1000 mg/kg/day, Mean AUC0–24, rat female, 1000 mg/kg/day oral, 26 weeks): 453 ng·h/mL
Cmax ([2]; female, Sprague-Dawley (Crl:CD), rat, 1000 mg/kg/day, rat female, 1000 mg/kg/day oral, 26 weeks): 96.3 ng/mL
AUC(0-t) ([2]; female, Sprague-Dawley, rat, 30 mg/kg/day, Mean AUC0–24, rat female, 30 mg/kg/day oral, 4 weeks): 25.7 ng·h/mL
AUC(0-t) ([2]; female, Sprague-Dawley, rat, 30 mg/kg/day, Mean AUC0–24, rat female, 30 mg/kg/day oral, 13 weeks): 54.6 ng·h/mL
AUC(0-t) ([2]; female, Sprague-Dawley, rat, 100 mg/kg/day, Mean AUC0–24, rat female, 100 mg/kg/day oral, 4 weeks): 70.5 ng·h/mL
AUC(0-t) ([2]; female, Sprague-Dawley, rat, 100 mg/kg/day, Mean AUC0–24, rat female, 100 mg/kg/day oral, 13 weeks): 227 ng·h/mL
AUC(0-t) ([2]; female, Sprague-Dawley, rat, 1000 mg/kg/day, Mean AUC0–24, rat female, 1000 mg/kg/day oral, 4 weeks): 384 ng·h/mL
AUC(0-t) ([2]; male, Sprague-Dawley (Crl:CD), rat, 30 mg/kg/day, Mean AUC0–24, rat male, 30 mg/kg/day oral, 26 weeks): 34.6 ng·h/mL
Cmax ([2]; male, Sprague-Dawley (Crl:CD), rat, 30 mg/kg/day, rat male, 30 mg/kg/day oral, 26 weeks): 4.52 ng/mL
AUC(0-t) ([2]; male, Sprague-Dawley (Crl:CD), rat, 100 mg/kg/day, Mean AUC0–24, rat male, 100 mg/kg/day oral, 26 weeks): 95.7 ng·h/mL
Cmax ([2]; male, Sprague-Dawley (Crl:CD), rat, 100 mg/kg/day, rat male, 100 mg/kg/day oral, 26 weeks): 15.8 ng/mL
AUC(0-t) ([2]; male, Sprague-Dawley (Crl:CD), rat, 1000 mg/kg/day, Mean AUC0–24, rat male, 1000 mg/kg/day oral, 26 weeks): 384 ng·h/mL
Cmax ([2]; male, Sprague-Dawley (Crl:CD), rat, 1000 mg/kg/day, rat male, 1000 mg/kg/day oral, 26 weeks): 60.6 ng/mL
AUC(0-t) ([2]; male, Sprague-Dawley, rat, 30 mg/kg/day, Mean AUC0–24, rat male, 30 mg/kg/day oral, 4 weeks): 23.4 ng·h/mL
AUC(0-t) ([2]; male, Sprague-Dawley, rat, 30 mg/kg/day, Mean AUC0–24, rat male, 30 mg/kg/day oral, 13 weeks): 58.2 ng·h/mL
AUC(0-t) ([2]; male, Sprague-Dawley, rat, 100 mg/kg/day, Mean AUC0–24, rat male, 100 mg/kg/day oral, 4 weeks): 71.3 ng·h/mL
AUC(0-t) ([2]; male, Sprague-Dawley, rat, 100 mg/kg/day, Mean AUC0–24, rat male, 100 mg/kg/day oral, 13 weeks): 131 ng·h/mL
AUC(0-t) ([2]; male, Sprague-Dawley, rat, 1000 mg/kg/day, Mean AUC0–24, rat male, 1000 mg/kg/day oral, 4 weeks): 335 ng·h/mL
AUC(0-t) ([2]; male, Sprague-Dawley, rat, 1000 mg/kg/day, Mean AUC0–24, rat male, 1000 mg/kg/day oral, 13 weeks): 452 ng·h/mL
nonclinical:clinical systemic AUC margin at the NOAEL ([2]; rat 26-week study, 1000 mg/kg/day, vs human 300 mg QD): 8 fold
Mean Cave ([2]; rat female, 30 mg/kg/day oral, 4 weeks): 1.07 ng/mL
Mean Cave ([2]; rat female, 30 mg/kg/day oral, 13 weeks): 2.28 ng/mL
Mean Cave ([2]; rat female, 30 mg/kg/day oral, 26 weeks): 0.700 ng/mL
Mean Cave ([2]; rat female, 100 mg/kg/day oral, 4 weeks): 2.94 ng/mL
Mean Cave ([2]; rat female, 100 mg/kg/day oral, 13 weeks): 9.46 ng/mL
Mean Cave ([2]; rat female, 100 mg/kg/day oral, 26 weeks): 5.29 ng/mL
Mean Cave ([2]; rat female, 1000 mg/kg/day oral, 4 weeks): 16.0 ng/mL
Mean Cave ([2]; rat female, 1000 mg/kg/day oral, 13 weeks): 63.8 ng/mL
Mean Cave ([2]; rat female, 1000 mg/kg/day oral, 26 weeks): 18.9 ng/mL
Mean Cave ([2]; rat male, 30 mg/kg/day oral, 4 weeks): 0.975 ng/mL
Mean Cave ([2]; rat male, 30 mg/kg/day oral, 13 weeks): 2.43 ng/mL
Mean Cave ([2]; rat male, 30 mg/kg/day oral, 26 weeks): 1.44 ng/mL
Mean Cave ([2]; rat male, 100 mg/kg/day oral, 4 weeks): 2.97 ng/mL
Mean Cave ([2]; rat male, 100 mg/kg/day oral, 13 weeks): 5.46 ng/mL
Mean Cave ([2]; rat male, 100 mg/kg/day oral, 26 weeks): 3.99 ng/mL
Mean Cave ([2]; rat male, 1000 mg/kg/day oral, 4 weeks): 14.0 ng/mL
Mean Cave ([2]; rat male, 1000 mg/kg/day oral, 13 weeks): 18.8 ng/mL
Mean Cave ([2]; rat male, 1000 mg/kg/day oral, 26 weeks): 16.0 ng/mL
plasma Cave:protein-corrected JAK IC50 ratio ([2]; rat, 30 mg/kg/day): < 1 ×
plasma Cave:uncorrected JAK IC50 ratio ([2]; rat, 30 mg/kg/day): < 1 ×
plasma concentrations versus uncorrected human JAK IC50 threshold ([2]; rat, 100 mg/kg/day): only briefly rose above
plasma Cave:protein-corrected JAK IC50 ratio ([2]; rat, 1000 mg/kg/day): < 1
plasma Cave:uncorrected JAK IC50 ratio ([2]; rat, 1000 mg/kg/day): 1–3 ×

Source: PMC8963331 (Toxicological Sciences, 2022)
